# Measured values as given in US5378725A, “Inhibition of phosphatidylinositol 3-kinase with wortmannin and analogs thereof” (The Arizona Board of Regents, priority 1993, dated 1995).
# Like-named read-outs stand apart in the source and are kept apart here.
# Columns and labels:
# [1] = biological target: T1, purified bovine brain PI 3-kinase (Bos taurus, UniProt P32871); assay: Assay of purified PI 3-kinase activity (32P incorporation into phosphatidylinositol, TLC/scintillation); type: biochemical; settings: bovine brain purified PI 3-kinase
# T1 construct: PI 3-kinase was prepared from bovine brain; from tissue; host or cells: bovine brain
# Procedure: In another, preferred, method, PI 3-kinase was prepared from bovine brain. Two bovine brains (wet weight about 900 g) were obtained from a local slaughterhouse within minutes of slaughter, packed on ice, and homogenized within one hour. Brains were trimmed of excess fat and blood vessels and then homogenized using a Tekmar Tissuemizer (Cincinnati, Ohio) at 4° C. in 20 mM of Tris(pH 8.3) containing 250 mM of sucrose, 6 mM of β-mercaptoethanol, 1 μg/ml of leupeptin, 1 μg/ml of pepstatin A, 0.4 mM of PMSF, and 1 mM of MgCl2.
# Following centrifugation for 60 minutes at 10,000×g, the DH of the supernatant (about 1200 mL) was lowered to 5.75 using dropwise addition of 1M acetic acid at 4° C. After stirring for an additional 15 minutes at 4° C., the solution was centrifuged for 60 minutes at 13,500×g. The supernatant was discarded. Pellets were resuspended in Buffer A (20 mM of Tris, pH 8.3, containing 6 mM of β-mercaptoethanol, 0.1 mM of ethylene glycol-bis(β-aminoethyl ether) N,N,N',N'-tetraacetic acid (EGTA), 1 μg/mL of leupeptin, 1 μg/mL of pepstatin A, and 1 mM of MgCl2), and loaded onto a Fast Flow Q Sepharose column (300 ml) at a flow rate of 5 mL/min at 4° C. After loading, the column was washed with 3 volumes of Buffer A containing 0.1M of KCl and the kinase was then eluted with a linear gradient of Buffer A/0.1M KCl to Buffer A/O.6M KCl at 3 mL/min over 7 volumes.
# Fractions were assayed for PI 3-kinase activity using 10 μL of the fraction and phosphatidylinositol as substrate as described below. […] The PI 3-kinase pool was subjected to a 40% ammonium sulfate precipitation. Following centrifugation (60 minutes at 13,500×g), pellets were resuspended in Buffer B (10 mM of potassium phosphate, pH 7.4, containing 6 mM of β-mercaptoethanol, 1 μg/mL of leupeptin, 1 μg/mL of pepstatin A, and 1 mM of MgCl2), and loaded onto a 50 mL hydroxylapatite column (Calbiochem, Inc., La Jolla, Calif.) at 2.5 mL/minute. The column was washed with 150 mL Buffer B until the A280 baseline reached zero, and the kinase was then eluted with a linear gradient of 10-320 mM of KH2 PO4 at 1 mL/minute over 450 minutes.
# Active fractions were pooled and then loaded at 3 mL/minute onto a MonoS column (8 ml) (Pharmacia, Inc., Piscataway, N.J.) equilibrated in Buffer C (50 mM of MES, pH 6.2, containing 6 mM of β-mercaptoethanol, 0.1 mM of EGTA, 1 μg/mL of leupeptin, 1 μg/mL of pepstatin A, and 1 mM of MgCl2). PI 3-kinase was eluted with a linear gradient of 0-0.4M KCl in Buffer C over 120 minutes. […] Therefore, the MonoS flow-through was concentrated by tangential flow filtration on a Mini-Ultrasette Omega 50 K membrane (Filtron, Inc., Northborough, Mass.) and diluted in Buffer C to lower the conductivity. The material was then reloaded onto the MonoS column using the above conditions. […] Two pools of phosphatidylinositol kinase activity were obtained in the gradient; each was assayed for PI 3-kinase and PI 4-kinase activity.
# Pool I from the MonoS column was diluted with Buffer A and chromatographed on MonoQ (1 ml) and ehted with a gradient of 0-0.4M KCl in Buffer A. The final pool was assayed for PI 3-kinase and PI 4-kinase activity.
# PI 3-kinase activity was measured as previously described by Matter, W. F., et al., Biochemical and Biophysical Research Communications, 186:624-631 (1992).
# protein kinase C [2] = settings: Matter, et al.; cited from earlier work
# PI 3-kinase = settings: Matter, et al.; cited from earlier work
# PI 4-kinase [3] = settings: Matter, et al.; cited from earlier work
# [4] = biological target: c-src protein tyrosine kinase (Homo sapiens, UniProt P12931); assay: Effect on c-src protein tyrosine kinase; type: biochemical
# PI 4-kinase [5] = assay: Effect on PI 4-kinase; type: biochemical
# phospholipase C = assay: Effect on phospholipase C; type: biochemical
# [6] = tested on: PI 3-kinase in v-sis NIH 3T3 cells; assay: Assay of whole cell PI 3-kinase activity (PDGF-stimulated phosphatidylinositol-3-phosphate formation); type: cell-based; settings: 1.3 μM, 100 ng/mL PDGF, 10 min contact before stimulation
# Procedure: The cells were washed with phosphate-free DMEM and incubated in the same medium containing 0.1% fatty acid free bovine serum, albumin and 0.15 mCi/mL [^32 P]H3 PO4 (ICN Biomedicals, Irvine, Calif.) for 70 minutes. Inhibitor candidates were prepared using the above-stated procedure, and placed in contact with the cells for 10 minutes prior to their stimulation. The cells were stimulated with 100 ng/mL of PDGF for 10 minutes. To measure phosphatidylinositol-3-phosphates in the cells, the medium was removed and the cells washed once with phosphate buffered saline before adding 4 mL/flask of HCl:methanol (1:1 by volume). The cells were scraped from the flasks and total lipids were extracted by the method described by Folch, J., et al., J. Biol. Chem., 226:497-509 (1957). Deacylated lipids were prepared using methylamine via the method described by Clark, N. G., et al., BioChem J., 195: 301-306, (1981), and separated by HPLC using a 10 cm RAC II Partisil 5 SAX column (Whatman, Kent, U.K.) eluted with an NH4 H2 PO4 gradient at a flow of 0.8 mL/minute as described by Auger, K. R., et al., Methods in Inositide Research, pp. 159-166 [Irvine, R. F., Ed., Raven Press, Ltd., New York, N.Y. (1990)]. Detection of the eluting peaks was by a radioactive flow detector (Flo-One Beta, Model A515, Radiomatic Instruments, Meriden, Conn.). […]
# protein kinase C [7] = assay: Effect on protein kinase C; type: biochemical
# [8] = IC50 (ng/mL), 10 min preincubation, 20 μM ATP, 3% DMSO
# [9] = IC50, molar value in parentheses, value printed in parentheses beside ng/mL
# [10] = 10 min preincubation, 20 μM ATP, 3% DMSO, read-out: IC50 (ng/mL) (converted)
# T1 sequence (P32871 whole entry): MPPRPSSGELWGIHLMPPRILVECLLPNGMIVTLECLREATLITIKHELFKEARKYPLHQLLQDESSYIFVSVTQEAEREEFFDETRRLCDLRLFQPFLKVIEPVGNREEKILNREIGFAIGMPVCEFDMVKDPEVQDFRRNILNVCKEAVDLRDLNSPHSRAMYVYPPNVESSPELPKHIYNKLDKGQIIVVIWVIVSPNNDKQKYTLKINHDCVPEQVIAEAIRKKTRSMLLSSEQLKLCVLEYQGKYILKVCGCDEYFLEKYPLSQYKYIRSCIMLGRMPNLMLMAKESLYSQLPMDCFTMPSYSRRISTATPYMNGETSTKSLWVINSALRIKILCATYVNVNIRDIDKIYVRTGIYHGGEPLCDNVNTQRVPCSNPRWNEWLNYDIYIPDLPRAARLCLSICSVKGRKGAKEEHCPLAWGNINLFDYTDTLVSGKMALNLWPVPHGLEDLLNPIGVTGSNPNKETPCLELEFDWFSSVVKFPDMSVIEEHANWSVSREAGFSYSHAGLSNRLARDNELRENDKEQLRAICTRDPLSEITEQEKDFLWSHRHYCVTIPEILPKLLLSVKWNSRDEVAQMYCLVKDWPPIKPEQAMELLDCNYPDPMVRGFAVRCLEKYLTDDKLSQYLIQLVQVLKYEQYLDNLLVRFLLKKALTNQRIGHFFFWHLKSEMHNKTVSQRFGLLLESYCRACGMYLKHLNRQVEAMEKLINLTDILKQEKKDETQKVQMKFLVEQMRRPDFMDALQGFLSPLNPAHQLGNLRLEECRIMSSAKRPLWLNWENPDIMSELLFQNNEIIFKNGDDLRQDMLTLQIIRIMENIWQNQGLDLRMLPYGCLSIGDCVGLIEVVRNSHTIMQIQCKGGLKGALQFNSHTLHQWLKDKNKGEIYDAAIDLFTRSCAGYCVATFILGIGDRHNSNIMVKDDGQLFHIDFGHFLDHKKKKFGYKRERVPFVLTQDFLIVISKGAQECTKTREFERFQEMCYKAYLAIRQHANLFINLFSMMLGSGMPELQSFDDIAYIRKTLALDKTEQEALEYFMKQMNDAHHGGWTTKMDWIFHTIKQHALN
# T1 sequence (P23727 whole entry partner): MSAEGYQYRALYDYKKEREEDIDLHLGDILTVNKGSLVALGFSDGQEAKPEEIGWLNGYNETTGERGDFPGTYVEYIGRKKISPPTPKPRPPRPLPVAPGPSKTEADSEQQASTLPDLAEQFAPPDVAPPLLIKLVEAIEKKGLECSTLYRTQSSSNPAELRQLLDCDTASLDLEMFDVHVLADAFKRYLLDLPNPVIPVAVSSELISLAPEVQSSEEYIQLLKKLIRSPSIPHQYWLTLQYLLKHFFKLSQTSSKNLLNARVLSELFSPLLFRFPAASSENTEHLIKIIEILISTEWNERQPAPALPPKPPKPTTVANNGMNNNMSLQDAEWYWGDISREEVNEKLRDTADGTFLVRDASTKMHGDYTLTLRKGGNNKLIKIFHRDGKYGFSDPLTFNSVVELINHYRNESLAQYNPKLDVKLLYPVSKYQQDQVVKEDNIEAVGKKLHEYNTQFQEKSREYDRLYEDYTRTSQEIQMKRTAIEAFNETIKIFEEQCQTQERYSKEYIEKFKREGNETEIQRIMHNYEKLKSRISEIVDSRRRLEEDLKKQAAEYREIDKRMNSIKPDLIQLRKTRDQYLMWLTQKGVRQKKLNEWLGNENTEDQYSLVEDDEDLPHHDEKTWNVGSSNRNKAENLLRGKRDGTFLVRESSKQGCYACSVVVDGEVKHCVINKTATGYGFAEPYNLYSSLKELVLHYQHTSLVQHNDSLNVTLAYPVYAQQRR
# Sequence of c-src protein tyrosine kinase (P12931 whole entry): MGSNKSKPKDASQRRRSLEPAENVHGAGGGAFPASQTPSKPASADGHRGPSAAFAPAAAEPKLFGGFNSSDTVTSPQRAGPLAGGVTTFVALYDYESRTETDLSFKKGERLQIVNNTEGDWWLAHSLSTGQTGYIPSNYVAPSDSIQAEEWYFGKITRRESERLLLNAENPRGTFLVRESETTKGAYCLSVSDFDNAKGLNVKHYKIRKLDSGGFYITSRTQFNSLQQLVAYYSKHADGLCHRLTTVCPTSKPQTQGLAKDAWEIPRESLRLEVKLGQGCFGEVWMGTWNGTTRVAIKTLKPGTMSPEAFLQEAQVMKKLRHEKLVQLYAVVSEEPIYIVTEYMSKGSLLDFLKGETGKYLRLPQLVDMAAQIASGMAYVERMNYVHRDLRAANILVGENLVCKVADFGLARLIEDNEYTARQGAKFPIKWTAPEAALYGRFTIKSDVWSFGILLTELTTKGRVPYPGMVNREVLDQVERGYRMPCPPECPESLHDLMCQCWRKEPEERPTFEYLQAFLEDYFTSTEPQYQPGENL
smiles,measurement,setting,value
"COC[C@H]1OC(=O)c2coc3c2[C@@]1(C)C1=CC[C@]2(C)C(=O)CC[C@H]2[C@@H]1C3=O [II, Δ9,11-dehydrodesacetoxywortmannin]",IC50,[1]; [8],54 nM
same,IC50,[1]; [9],59 nM
"COC[C@H]1OC(=O)c2coc3c2[C@@]1(C)C1=C(C3=O)[C@@H]2CCC(=O)[C@@]2(C)CC1 [Ib, 11-desacetoxywortmannin]",IC50,[1]; [10],16.7 nM
same,IC50,"[1]; value printed in parentheses beside ng/mL, read-out: IC50, molar value in parentheses",16.7 nM
"COC(=O)c1coc2c(O)c3c(c(C)c12)C=C[C@]1(C)C(=O)CC[C@@H]31 [IIIb, opened A-ring methyl ester of wortmannin]",IC50,[1]; [10],4600 nM
O=c1c(O)c(-c2ccc(O)c(O)c2)oc2cc(O)cc(O)c12 [quercetin],inhibition of protein kinase C,protein kinase C [2],inhibit
same,inhibition of PI 3-kinase,PI 3-kinase,inhibit
same,inhibition of PI 4-kinase,PI 4-kinase [3],inhibit
"COC[C@H]1OC(=O)c2coc3c2[C@@]1(C)C1=C(C3=O)[C@@H]2CCC(=O)[C@@]2(C)C[C@H]1OC(C)=O [Ia, wortmannin]",effect on c-src protein tyrosine kinase,[4],no effect
same,effect on PI 4-kinase,PI 4-kinase [5],no effect
same,effect on phospholipase C,phospholipase C,no effect
same,IC50,[1]; [8],4.2 nM
same,IC50,[1]; [9],4.2 nM
same,inhibition of platelet derived growth factor stimulated phosphatidylinositol-3-phosphate formation in whole cells,[6],almost complete inhibition
same,effect on protein kinase C,protein kinase C [7],no effect
